How the values were obtained:
bedstraw = assay: Test B pre/postemergence bedstraw; type: in vivo, Galium aparine
Method in brief: (§1)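 Test chemicals in a non-phytotoxic solvent mixture with surfactant were sprayed preemergence onto planted seeds and postemergence onto plants 2 to 18 cm tall (1- to 4-leaf stage). After twelve to sixteen days in a greenhouse, injury was visually rated against untreated controls from 0 (no effect) to 10 (complete control).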

blackgrass = assay: Test B pre/postemergence blackgrass; type: in vivo, Alopecurus myosuroides
Method in brief: as §1

surinam grass = assay: Test B pre/postemergence surinam grass; type: in vivo, Brachiaria decumbens
Method in brief: as §1

corn = assay: Test B pre/postemergence corn; type: in vivo, Zea mays
Method in brief: as §1

crabgrass = assay: Test B pre/postemergence crabgrass; type: in vivo, Digitaria sanguinalis
Method in brief: as §1

giant foxtail = assay: Test B pre/postemergence giant foxtail; type: in vivo, Setaria faberii
Method in brief: as §1

morningglory = assay: Test B pre/postemergence morningglory; type: in vivo, Ipomoea hederacea
Method in brief: as §1

pigweed = assay: Test B pre/postemergence pigweed; type: in vivo, Amaranthus retroflexus
Method in brief: as §1

rape = assay: Test B pre/postemergence rape; type: in vivo, Brassica napus
Method in brief: as §1

soybean = assay: Test B pre/postemergence soybean; type: in vivo, Glycine max
Method in brief: as §1

velvetleaf = assay: Test B pre/postemergence velvetleaf; type: in vivo, Abutilon theophrasti
Method in brief: as §1

wheat = assay: Test B pre/postemergence wheat; type: in vivo, Triticum aestivum
Method in brief: as §1

wild oat = assay: Test B pre/postemergence wild oat; type: in vivo, Avena fatua
Method in brief: as §1

purple nutsedge = assay: Test B pre/postemergence purple nutsedge; type: in vivo, Cyperus rotundus
Method in brief: as §1

rice = assay: Test B flood test rice; type: in vivo, Oryza sativa
Method in brief: (§2)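 Read-out is a visual response score from 0 (no effect) to 10 (complete control), assigned by comparison with untreated controls. Treatment was applied at the 2-leaf stage, and plants stayed in the greenhouse for twelve to sixteen days before scoring.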

duck salad = assay: Test B flood test duck salad; type: in vivo, Heteranthera limosa
Method in brief: as §2

[1] = Postemergence, Rate 31 g/ha, visual rating, scale 0 to 10 (0 no effect, 10 complete control)
[2] = Preemergence, Rate 31 g/ha, visual rating, scale 0 to 10 (0 no effect, 10 complete control)
[3] = Preemergence, Rate 62 g/ha, scale of 0 to 10 where 0 is no effect and 10 is complete control
[4] = Preemergence, Rate 250 g/ha, scale of 0 to 10 where 0 is no effect and 10 is complete control
[5] = Rate 62 g/ha, Postemergence, scale 0 to 10 (0 no effect, 10 complete control)
[6] = Rate 125 g/ha, Postemergence, scale of 0 to 10 where 0 is no effect and 10 is complete control
[7] = Rate 125 g/ha, Preemergence, scale of 0 to 10 where 0 is no effect and 10 is complete control
[8] = Rate 250 g/ha, Postemergence, scale of 0 to 10 where 0 is no effect and 10 is complete control
[9] = Rate 31 g/ha, Pre-emergence section (flood test species), scale 0 to 10
[10] = Rate 62 g/ha, headed Pre-emergence (flood test species), scale 0 to 10 (0 no effect, 10 complete control)
[11] = Rate 125 g/ha, Pre-emergence, flood test species, scale 0 to 10 where 0 is no effect and 10 is complete control
[12] = Rate 250 g/ha, Pre-emergence, flood-test species, scale 0 to 10, 0 is no effect, 10 is complete control

## CCOCn1c(=O)on(C(=O)N(c2ccc(F)cc2)C(C)C)c1=O [Compound 295]
bedstraw; [1]
  Bedstraw plant response rating: 0
bedstraw; [2]
  Bedstraw plant response rating: 0
bedstraw; [3]
  Bedstraw plant response rating: 0
bedstraw; [4]
  Bedstraw plant response rating: 0
bedstraw; [5]
  Bedstraw plant response rating: 0
bedstraw; [6]
  Bedstraw plant response rating: 4
bedstraw; [7]
  Bedstraw plant response rating: 0
bedstraw; [8]
  Plant response rating, Bedstraw: 4
blackgrass; [1]
  Blackgrass plant response rating: 0
blackgrass; [2]
  Blackgrass plant response rating: 4
blackgrass; [3]
  Blackgrass plant response rating: 5
blackgrass; [4]
  Blackgrass plant response rating: 10
blackgrass; [5]
  Blackgrass plant response rating: 2
blackgrass; [6]
  Blackgrass plant response rating: 7
blackgrass; [7]
  Blackgrass plant response rating: 10
blackgrass; [8]
  Plant response rating, Blackgrass: 9
Surinam grass; [1]
  B. signalgrass plant response rating: 0
Surinam grass; [2]
  B. signalgrass plant response rating: 3
Surinam grass; [3]
  B. signalgrass plant response rating: 6
Surinam grass; [4]
  B. signalgrass plant response rating: 8
Surinam grass; [5]
  B. signalgrass plant response rating: 0
Surinam grass; [6]
  B. signalgrass plant response rating: 0
Surinam grass; [7]
  B. signalgrass plant response rating: 6
Surinam grass; [8]
  Plant response rating, B. signalgrass: 5
corn; [1]
  Corn plant response rating: 0
corn; [2]
  Corn plant response rating: 0
corn; [3]
  Corn plant response rating: 0
corn; [4]
  Corn plant response rating: 0
corn; [5]
  Corn plant response rating: 0
corn; [6]
  Corn plant response rating: 0
corn; [7]
  Corn plant response rating: 0
corn; [8]
  Plant response rating, Corn: 0
crabgrass; [1]
  Crabgrass plant response rating: 0
crabgrass; [2]
  Crabgrass plant response rating: 2
crabgrass; [3]
  Crabgrass plant response rating: 2
crabgrass; [4]
  Crabgrass plant response rating: 7
crabgrass; [5]
  Crabgrass plant response rating: 0
crabgrass; [6]
  Crabgrass plant response rating: 3
crabgrass; [7]
  Crabgrass plant response rating: 7
crabgrass; [8]
  Plant response rating, Crabgrass: 8
Giant foxtail; [1]
  Giant foxtail plant response rating: 0
Giant foxtail; [2]
  Giant foxtail plant response rating: 8
Giant foxtail; [3]
  Giant foxtail plant response rating: 8
Giant foxtail; [4]
  Giant foxtail plant response rating: 10
Giant foxtail; [5]
  Giant foxtail plant response rating: 0
Giant foxtail; [6]
  Giant foxtail plant response rating: 6
Giant foxtail; [7]
  Giant foxtail plant response rating: 10
Giant foxtail; [8]
  Plant response rating, Giant foxtail: 9
morningglory; [1]
  Morningglory plant response rating: 1
morningglory; [2]
  Morningglory plant response rating: 0
morningglory; [3]
  Morningglory plant response rating: 0
morningglory; [4]
  Morningglory plant response rating: 0
morningglory; [5]
  Morningglory plant response rating: 1
morningglory; [6]
  Morningglory plant response rating: 5
morningglory; [7]
  Morningglory plant response rating: 0
morningglory; [8]
  Plant response rating, Morningglory: 7
pigweed; [1]
  Redroot pigweed plant response rating: 0
pigweed; [2]
  Redroot pigweed plant response rating: 0
pigweed; [3]
  Redroot pigweed plant response rating: 3
pigweed; [4]
  Redroot pigweed plant response rating: 6
pigweed; [5]
  Redroot pigweed plant response rating: 0
pigweed; [6]
  Redroot pigweed plant response rating: 5
pigweed; [7]
  Redroot pigweed plant response rating: 6
pigweed; [8]
  Plant response rating, Redroot pigweed: 7
rape; [1]
  Rape plant response rating: 0
rape; [2]
  Rape plant response rating: 0
rape; [3]
  Rape plant response rating: 0
rape; [4]
  Rape plant response rating: 10
rape; [5]
  Rape plant response rating: 0
rape; [6]
  Rape plant response rating: 0
rape; [7]
  Rape plant response rating: 2
rape; [8]
  Plant response rating, Rape: 3
soybean; [1]
  Soybean plant response rating: 1
soybean; [2]
  Soybean plant response rating: 0
soybean; [3]
  Soybean plant response rating: 0
soybean; [4]
  Soybean plant response rating: 0
soybean; [5]
  Soybean plant response rating: 2
soybean; [6]
  Soybean plant response rating: 2
soybean; [7]
  Soybean plant response rating: 0
soybean; [8]
  Plant response rating, Soybean: 4
velvetleaf; [1]
  Velvetleaf plant response rating: 0
velvetleaf; [2]
  Velvetleaf plant response rating: 0
velvetleaf; [3]
  Velvetleaf plant response rating: 0
velvetleaf; [4]
  Velvetleaf plant response rating: 3
velvetleaf; [5]
  Velvetleaf plant response rating: 0
velvetleaf; [6]
  Velvetleaf plant response rating: 0
velvetleaf; [7]
  Velvetleaf plant response rating: 0
velvetleaf; [8]
  Plant response rating, Velvetleaf: 5
wheat; [1]
  Wheat plant response rating: 0
wheat; [2]
  Wheat plant response rating: 0
wheat; [3]
  Wheat plant response rating: 0
wheat; [4]
  Wheat plant response rating: 6
wheat; [5]
  Wheat plant response rating: 0
wheat; [6]
  Wheat plant response rating: 0
wheat; [7]
  Wheat plant response rating: 3
wheat; [8]
  Plant response rating, Wheat: 3
Wild oat; [1]
  Wild oats plant response rating: 0
Wild oat; [2]
  Wild oats plant response rating: 0
Wild oat; [3]
  Wild oats plant response rating: 2
Wild oat; [4]
  Wild oats plant response rating: 9
Wild oat; [5]
  Wild oats plant response rating: 0
Wild oat; [6]
  Wild oats plant response rating: 0
Wild oat; [8]
  Plant response rating, Wild oats: 2
Purple nutsedge; [1]
  Nutsedge plant response rating: 0
Purple nutsedge; [2]
  Nutsedge plant response rating: 0
Purple nutsedge; [3]
  Nutsedge plant response rating: 0
Purple nutsedge; [4]
  Nutsedge plant response rating: 0
Purple nutsedge; [5]
  Nutsedge plant response rating: 0
Purple nutsedge; [6]
  Nutsedge plant response rating: 0
Purple nutsedge; [7]
  Nutsedge plant response rating: 0
Purple nutsedge; [8]
  Plant response rating, Nutsedge: 0
rice; [9]
  Rice plant response rating: 0
rice; [10]
  Rice plant response rating: 0
rice; [11]
  Rice plant response rating: 0
rice; [12]
  Rice plant response rating: 0
Duck salad; [9]
  Ducksalad plant response rating: 0
Duck salad; [10]
  Ducksalad plant response rating: 0
Duck salad; [11]
  Ducksalad plant response rating: 0
Duck salad; [12]
  Ducksalad plant response rating: 0

Source: patent publication US6737383B1, “Herbicidal oxadiazolidines” (priority 1999, dated 2004)
